Data set [1] concerns persistent mechanical pain in mouse models. On the set-up: method as in PMID 34039739. Conditions: hindpaw injection; mouse plantar incision, CFA and paclitaxel models; cited from earlier work.
Data set [2] has as its system mechanical hypersensitivity in a mouse SNI model. On the set-up: method as in PMID 34039739. Conditions: intra-plantar injection; cited from earlier work.
The test system of a further data set is uninjured mice. On the set-up: method as in PMID 34039739. Particulars: peripheral dosing; cited from earlier work.
Data set [3] concerns trinitrobenzene sulfonic acid-induced colonic hypersensitivity in male rats. In words: colonic distension test in TNBS-induced colonic hypersensitivity model. Format: in vivo, rat. Particulars: for mean percentual colonic anti-hypersensitivity activity: mean of four trials (30, 50, 70, 120 min).
A short description of data set [4]: terminal plasma and brain exposure in female rats (PRS study). Format: in vivo, rat. Conditions: 3-30 mg/kg p.o. How it is done: Briefly, total blood was collected by intra-cardiac puncture on anaesthetized (3% Isoflurane, 3 L/min) animals into pre-cooled K3EDTA tubes. […] At least 100–200 µL of plasma was gently collected and immediately frozen at −80 °C. After decapitation, the whole brain was collected, rinsed with fresh ice-cold 0.9% NaCl solution, and thereafter frozen in dry ice and stored in a polypropylene tube at −80 °C.

Data set [5] in a line: plasma and brain exposure in male rats (CCI study and satellite rats). It counts as in vivo, rat. Particulars: independent of dose or sampling time. As for the experimental part:
Terminal samples for concentration analyses were also collected from HC-070-treated sciatic nerve-injured male animals at the end of the paw pressure test, and from female rats at the end of the last colonic distension test in the partial restraint stress (PRS) study. Briefly, total blood was collected by intra-cardiac puncture on anaesthetized (3% Isoflurane, 3 L/min) animals into pre-cooled K3EDTA tubes. Samples were gently mixed, placed on ice, and centrifuged at the latest within 30 min after collection at 1600× g or 1710× g for 10 min at 4 °C. At least 100–200 µL of plasma was gently collected and immediately frozen at −80 °C. After decapitation, the whole brain was collected, rinsed with fresh ice-cold 0.9% NaCl solution, and thereafter frozen in dry ice and stored in a polypropylene tube at −80 °C.

Data set [6] is described as follows: plasma protein binding, rapid equilibrium dialysis. Format: in vitro ADME. Conditions: rat plasma, 1 µg/mL, 37 °C, 4 h. As for the experimental part: Plasma protein binding studies were carried out in male Wistar Hannover rat plasma with heparin as the anticoagulant. All plasma samples were obtained from BioreclamationIVT (Baltimore, MD, USA). A Pierce Rapid Equilibrium Dialysis Device (RED) was used for the experiments. Aliquots of plasma (300 µL) containing the compound of interest (1 µg/mL) and phosphate-buffered saline (PBS) (500 µL) were added to the sample chamber and buffer chamber, respectively, on the RED device. The loaded dialysis plate was sealed and placed on a pre-heated shaker, and incubated at physiological temperature (+37 °C) for 4 h. After the incubation, aliquots of 50 µL for the donor and 200 µL for the receiver were removed from the chambers and placed into a 96-well plate. Plasma (50 µL) was added to the wells containing the receiver samples and 200 µL of PBS was added to the wells containing the donor samples. Two volumes of ACN were added to each well, and the samples were mixed and centrifuged, after which the supernatant was analysed by LC-MS/MS.
(In general: Equilibrium dialysis compares concentrations on both sides of a semipermeable membrane.)

Data set [7] can be described thus: brain homogenate binding, rapid equilibrium dialysis. It counts as in vitro ADME, rat. Particulars: as fraction. As for the experimental part:
The brain homogenate binding study was carried out in male Wistar Hannover brain homogenate, obtained from BioreclamationIVT (Baltimore, MD, USA). Brains were homogenized with two volumes of PBS prior to initiating the experiment. The instrumentation, volume ratios, incubation conditions, and sample preparation were the same as described above for plasma protein binding (brain homogenate used instead of plasma).

The test system of the next data set is incised mice. Set-up: method as in PMID 34039739. Conditions: hindpaw administration; cited from earlier work.
Another data set relates to mice. Particulars: mouse, in vivo, po; cited from earlier work.
Data set [8] deals with partial restraint stress-induced colonic hypersensitivity in female rats. In words: colonic distension test in partial restraint stress model. Particulars: for percentual anti-hypersensitivity activity on colonic hypersensitivity: mean of three trials.
Description: Animals were placed for 2 h in a plexiglas restraint cylinder in order to restrict, but not impede, body movements. Naïve control animals were allowed to move freely in their cages. Immediately after completion of the 2 h restraint stress period, 3 consecutive determinations of colonic sensitivity were performed every 20 min.
Colonic sensitivity was assessed by measuring the intra-colonic pressure required to induce a pain-related behavioral response during colonic distension (Electronic barostat, Distender Series IIRTM). Sedation is considered as a confounding factor in the assessment of pain, and therefore all experiments were performed in non-sedated conscious rats. In order to reduce bias, all experiments were performed by the same dedicated personnel within a study. The visceral pressure range was studied from 5 to 75 mmHg, but pain responses were typically evident at 30–35 mmHg. Briefly, a 5 cm balloon was gently inserted into the colon of conscious rats at 7 to 10 cm from the anus, and the catheter was taped to the base of the tail. After a 30 min acclimation period with the inserted balloon, colonic pressure was increased by 5 mmHg steps every 30 s, from 5 to 75 mmHg (cut-off), until pain-related elevation of the hind part of the rat body and/or a clearly visible abdominal contraction corresponding to severe cramp were evident.
The formula: ((Distension thresholdTNBS/PRS + veh − Distension thresholdnaïve + veh)/(Distension thresholdnaïve + veh)) × 100, was used to calculate percentual variation due to trinitrobenzene sulfonic acid administration or partial restraint stress, as compared to naïve rats. […] Statistical analyses were conducted using GraphPad Prism (version 8.4.2) and p < 0.05 was considered to represent a significant difference.
Data set [9] relates to CCI-induced mechanical hypersensitivity in male rats. In words: paw pressure test in chronic constriction injury (CCI) model.
Description: Prior to behavioral studies, the rats were habituated to the experimental conditions and handling. The common sciatic nerve of the right hindpaw was injured at the level of the middle of the thigh. Proximal to the sciatic trifurcation, four loose ligatures were tied around it with about 1 mm spacing using Mersilk sutures in anaesthetized rats (Xylazine 10 mg/kg i.p., Ketamine 60 mg/kg i.p.). Great care was taken to tie the ligatures, such that the diameter of the nerve was seen to be just barely constricted. Sham animals received only a skin and muscle incision. Fourteen days after the surgery, individual baseline values of the withdrawal threshold evoked by squeezing of the hind limb between a flat surface and a blunt pointer with an analgesimeter (Ugo Basile, Gemonio, Italy) were determined on both hindpaws while the animal was gently held in a restrained position. The analgesimeter exerted a steadily increasing force, and the reaction threshold was determined as the pressure (g) required to elicit paw withdrawal and/or vocalization. […] Dosing and testing were performed in a random order.
Statistical analyses were conducted using GraphPad Prism (version 8.4.2) and p < 0.05 was considered to represent a significant difference.
Data set [10] relates to mustard oil-induced visceral pain-related behaviors and hindpaw mechanical hypersensitivity. Particulars: intraperitoneal, and oral to a lesser extent; cited from earlier work.
Data set [11] concerns rat spared nerve injury model of neuropathic pain. Conditions: amygdaloid application; cited from earlier work.

On to `c1ccc(Cn2c(NCc3ccco3)nc3ccccc32)cc1` [AC1903], for which, in data set [1], the “effect on persistent mechanical pain” value is listed as “prevents the persistent mechanical pain”. In addition, the “effect on mechanical hypersensitivity” value in data set [2] is given as “failed to attenuate”. For the same molecule, the “effect on naïve mechanical sensitivity” value in the data set with uninjured mice is on record as “did not change”.

As to `Cn1c(=O)n(CCCO)c(=O)c2c1nc(Oc1cccc(Cl)c1)n2Cc1ccc(Cl)cc1` [HC-070], the “effect on TNBS-induced colonic hypersensitivity (colonic distension threshold)” value in [3] (3 mg/kg p.o., at 70 and 120 min) is “significantly and in a dose-dependent manner attenuated”; in [3] (10 mg/kg p.o., all time points (30-120 min)), “reversed”; in data set [3] (30 mg/kg p.o., all time points (30-120 min)), “reversed”. Moreover, the “mean percentual colonic anti-hypersensitivity activity” value in data set [3] (3 mg/kg p.o.) is reported as 58%; in [3] (10 mg/kg p.o.) it was 99%; in data set [3] (30 mg/kg p.o.), 134%. Further, the “KP,uu,BR (partitioning coefficient between unbound brain and plasma exposures)” value in data set [4] is on record as 0.5–0.8; in data set [5], 0.4–0.6. The plasma protein binding in [6] came out at 99.5%. For the same molecule, the “unbound fraction in rat brain homogenate” value in data set [7] amounted to 0.001. In addition, the “effect on established postoperative mechanical hypersensitivity” value in the data set on incised mice is reported as “alleviated”. Moreover, the “effect on locomotor activity” value in the data set on mice was “nor did oral HC-070 treatment alter the locomotor activity”. For the same molecule, the “percentual anti-hypersensitivity activity on colonic hypersensitivity” value stood at 100% in [8] (3 mg/kg p.o.), 181% in data set [8] (10 mg/kg p.o.) and 188% in data set [8] (30 mg/kg p.o.). For the same molecule, the “effect on colonic sensibility after PRS” value in data set [8] (oral doses of 3, 10 and 30 mg/kg) is “dose-dependently restored”. Moreover, the “reversal percentage of CCI-induced mechanical hypersensitivity, injured paw” value is given as 34% in data set [9] (3 mg/kg p.o., 45 min); 51% in data set [9] (10 mg/kg p.o., 75 min); 62% in data set [9] (30 mg/kg p.o., 45 min). For the same molecule, the “effect on CCI-induced mechanical hypersensitivity (withdrawal threshold, injured paw)” value in [9] (10 mg/kg p.o., 75 min) is “significantly attenuated”; in data set [9] (30 mg/kg p.o., 45 min), “significantly attenuated”.

On to `Cc1cc(N2CCCCC2)nc2ccccc12` [ML-204], for which the “effect on mustard oil-induced visceral pain-related behaviors and hindpaw mechanical hypersensitivity” value in data set [10] is on record as “dose-dependently attenuated”. In data set [11], the “effect on mechanical hypersensitivity and affective-like spontaneous pain-related behavior” value is on record as “dose-dependent suppression”.

`CN1CC[C@]23c4c5ccc(O)c4O[C@H]2[C@@H](O)C=C[C@H]3[C@H]1C5` [morphine]: in data set [8] (1 mg/kg s.c.), the “effect on PRS-lowered visceral pain threshold” value is “significant reversal” and the “percentual anti-hypersensitivity activity on colonic hypersensitivity” value came to 272%. Further, the “effect on mechanical withdrawal threshold of the non-injured control paw” value in data set [9] (3 mg/kg s.c.) is listed as “statistically significantly increased”. In addition, in data set [9] (3 mg/kg s.c., first two time points (45, 75 min)), the “effect on sustained CCI-induced mechanical hypersensitivity (reversal)” value is reported as “abolished”.
